Assays:
Assay type in all cases: cell-based
[1] = test system: Jurkat human leukemia T cells; test: NuMA release into supernatant (ELISA); conditions: for % NUMA RELEASED: Jurkat 1×10^6/ml
Description: The redistribution of phosphatidylserine in the plasma membrane during apoptosis was measured by flow cytometry using FITC-conjugated annexin V (BD Pharmingen, San Diego, Calif.). NuMA release into the supernatant was determined using a commercial ELISA kit (Oncogen/Calbiochem, Cambridge, Mass.).
Jurkat human leukemia T cells were incubated with 50 μM of 3, 4, 5, 6 and 7 GT base sequences, a 5 base ACGT sequence, 6 base AG, GG, AGT and CGT sequences and a 7 base GG sequence.
Jurkat human leukemia T cells (1×10^6/ml) were incubated with 6 and 27 GT base sequences (Table 32). NuMA was determined as in Example 23.
Jurkat human cell leukemia T cells were incubated for 24 h with 6 base GT SEQ ID NO:25, complementary 6 base AC SEQ ID NO:79, and 6 base GT SEQ ID NO:25+6 base AC SEQ ID NO:79. GT SEQ ID NO:25 and AC SEQ ID NO:79 were hybridized by mixing the sequences (1:1) and heating for 10 minutes at 65° C. As controls, GT SEQ ID NO:25 and AC SEQ ID NO:79 were heated for 10 minutes at 65° C. (Table 33). Apoptosis was evaluated as in Example 23.

[2] = test system: Jurkat human leukemia T cells; test: Cell cycle stage in Jurkat cells (propidium iodide flow cytometry); conditions: 24 h
Description: Cell cycle stage was determined using a […]™ PLUS DNA commercial kit (Becton Dickinson). Briefly, nuclei from cells were obtained by dissolving the cell membrane in a nonionic detergent, eliminating the cell cytoskeleton and nuclear proteins with trypsin, digesting the cellular RNA with RNase and stabilizing the nuclear chromatin with spermine. Propidium iodide was added to the cell nuclei and their fluorescence was analyzed in a flow cytometer equipped with electronic doublet discrimination capability (FACSCalibur, Becton Dickinson, San Jose, Calif.). Accumulation of cells in G0/G1, early S (SE), mid S (SM), late S (SL) or G2/M phases of the cell cycle was analyzed using MODFIT LT software (Verity Software House Inc., Topsham, Mass.).
Exponentially growing Jurkat human leukemia T cells (Table 28) and MCF-7 human breast cancer cells (5×10^5 cells/ml) (Table 29) were incubated for 24 h with 2, 6, 15, 18, 27 and 45 base sequences containing A, C, G and T. The cells were collected and centrifuged and cell cycle stage was determined.
Jurkat human cell leukemia T cells (1×10^6 cells/ml) were incubated for 24 h with 6 base GT SEQ ID NO:25, conplementary 6 base AC SEQ ID NO:79 and 6 base GT SEQ ID NO:25+6 base AC SEQ ID NO:79. GT SEQ ID NO:25 and AC SEQ ID NO:79 were hybridized by mixing the oligonucleotides (1:1) and heating for 10 minutes at 65° C. As controls, GT SEQ ID NO:25 and AC SEQ ID NO:79 were heated for 10 minutes at 65° C. (Table 30).

[3] = test system: Jurkat human leukemia T cells; test: Inhibition of Jurkat human leukemia T cell proliferation (MTT reduction); conditions: 100 μg/ml sequence, 48 h, 2.5×10^5 cells/ml
Description: (§1) Cells were seeded in 6 (1 ml/well), 24 (0.5 ml/well) or 96 (0.1 ml/well) well flat-bottom microplates and were maintained at 37° C. in a 5% CO2 atmosphere. Unless stated otherwise, 2.5×10^5 cells/ml were incubated with 0 μg/ml (control) and 100 μg/ml (treated) of 2 to 45 base sequences containing A, C, G and T for 48 h.
MTT was measured at a wavelength of 570 nm using a multiplate spectrophotometer reader (ELX800, Bio-TEK Instruments Inc., Winooski, Vt.).
Jurkat human leukemia T cells are an atypical multi-drug resistant human suspension tumor cell model.

[4] = test system: THP-1 human acute monocytic leukemia cells; test: Cytokine production by THP-1 cells (ELISA); conditions: THP-1, 1×10^6 cells, 100 μg/ml, 48 h; for ↑ IL-12 (fold increase treated vs control cells): p70 complex and free p40
Description: (§2) Unless stated otherwise, 1×10^6 cells were incubated with 100 μg/ml of each of the sequences tested for 48 h at 37° C. in 5% CO2. Production of cytokines IL-6, IL-10, IL-12, IL-1beta and TNF-alpha was determined in pg/ml in 100 μl of culture supernatant using the appropriate commercial ELISA (BioSource, Camarillo Calif.). The IL-12 ELISA measures both IL-12 p70 complex and free p40 subunit. Results are expressed as the “fold” (×) increase in cytokine production by treated cells compared to control cells.
THP-1 human acute monocytic leukemia cells were incubated with 2, 3, 6, 9, 12, 14, 15 and 18 base GT sequences and production of the cyotkine IL-6 was determined (Table 35).
THP-1 human acute monocytic leukemia cells were incubated with 6 base GT, AG, CG, GG, AGT and CGT sequences and production of the cytokines IL-12 and IL-6 was determined (Table 36).
THP-1 human acute monocytic leukemia cells were incubated with 6 base GT sequences, having either an oxygen (phosphodiester) or a sulfur (phosphorothioate) as the nonbridging atom on the phosphate groups and production of the cytokine IL-12 was determined (Table 39).
THP-1 human acute monocytic leukemia cells were incubated with 6 base GT SEQ ID NO:25, having either an oxygen (phosphodiester) or a sulfur (phosphorothioate) as the nonbridging atom on the phosphate groups and production of the cytokine IL-12 was determined (Table 40).

[5] = test system: human peripheral blood mononuclear cells; test: Cytokine production by human PBMC (ELISA); conditions: PBMC of 7 healthy humans, 100 μg/ml, 48 h
Description: as §2
Peripheral blood mononuclear cells (hereinafter, “PBMCs”) were isolated from 7 healthy humans by Ficoll-Hypaque (Amersham Pharmacia Biotech, Baie d'Urfée, Québec, Canada) by density gradient centrifugation of whole blood. PBMCs were incubated with 6 base GT, AGT, CGT, AG, CG and GG sequences and production of the cytokines IL-1beta, IL-6, IL-10 and IL-12 were determined.

[6] = test system: chimpanzee PBMCs; test: Cytokine production by chimpanzee PBMC (ELISA); conditions: PBMC of 4 healthy chimpanzees, 100 μg/ml, 48 h
Description: as §2
PBMCs were isolated from 4 healthy chimpanzees as in Example 35. Chimpanzee PBMCs were incubated with 6 base GT, AGT, CGT, AG, CG and GG sequences and production of the cytokines IL-10, IL-12 and TNF-alpha was determined (Table 41).

[7] = test system: rhesus monkey PBMCs; test: Cytokine production by rhesus monkey PBMC (ELISA); conditions: PBMC of 4 healthy rhesus monkeys, 100 μg/ml, 48 h
Description: as §2
PBMCs were isolated from 4 healthy rhesus monkeys as in Example 35. PBMCs were incubated with 6 base GT, AGT, CGT, AG, CG ands GG sequences and production of the cytokines IL-6, IL-12 and TNF-alpha was determined (Table 42).

[8] = test system: MCF-7 human breast cancer cells; test: Inhibition of MCF-7 cell proliferation (MTT); conditions: 100 μg/ml, 48 h, 5×10^5 cells/ml
Description: as §1
Cell proliferation was measured using dimethylthiazol-diphenyl-tetrazolium (MTT) reduction (Mosman et al. J. Immunol. Methods 65:55, 1983). MTT was measured at a wavelength of 570 nm using a multiplate spectrophotometer reader (ELX800, Bio-TEK Instruments Inc., Winooski, Vt.).
MCF-7 human breast cancer cells are a caspase 3 negative, estrogen-dependent human solid tumor model. MCF-7 cells (5×10^5 cells/ml) were incubated with 3 and 6 base GT sequences (Table 7).

[9] = Jurkat 1×10^6 cells/ml, sequences heated 10 minutes at 65° C.

Row | Substance | % INHIBITION of Jurkat human leukemia T cell proliferation [3] [%] | % of cells in phase: G0/G1 ([2]; Jurkat, 100 μg/ml) [%] | % of cells in phase: G2/M ([2]; Jurkat, 100 μg/ml) [%] | % of cells in phase: SE ([2]; Jurkat, 100 μg/ml) [%] | % of cells in phase: SL ([2]; Jurkat, 100 μg/ml) [%] | % of cells in phase: SM ([2]; Jurkat, 100 μg/ml) [%] | Arrest (cell cycle) ([2]; Jurkat, 100 μg/ml) | ↑ IL-12 (fold increase treated vs control cells) [4] [x] | % INHIBITION of MCF-7 human breast cancer cell proliferation [8] [%] | further results
1 | CC(AC)1CC (DNA CCACCC; unmodified DNA) [SEQ ID NO:79] | – | – | – | – | – | – | – | – | – | % NuMA released (untreated vs treated cells) ([1]; Jurkat, 24 h, sequences heated 10 minutes at 65° C.): 9%; % cells in phase: G0/G1 [2, 9]: 36.0%; % cells in phase: G2/M [2, 9]: 30.5%; % cells in phase: SE [2, 9]: 10.4%; % cells in phase: SL [2, 9]: 9.7%; % cells in phase: SM [2, 9]: 13.4%; Arrest (cell cycle) [2, 9]: had no effect on the cell cycle and None
2 | GGAAGG (unmodified DNA) [SEQ ID NO:42] | 22 | 48.0 | 34.1 | 19.8 | 5.8 | 8.5 | End | 4.1 | – | ↑ IL-6 (fold increase treated vs control cells) [4]: 29.2x; IL-1 beta fold increase: mean +/− SD [5]: 3.5 +/− 3.9 fold increase; IL-6 fold increase: mean +/− SD [5]: 11.8 +/− 5.8 fold increase; IL-10 fold increase: mean +/− SD [5]: 1.1 +/− 0.2 fold increase; IL-12 fold increase: mean +/− SD [5]: 3.0 +/− 2.7 fold increase; IL-10 fold increase: mean +/− SD [6]: 9.9 +/− 8.9 fold increase; IL-12 fold increase: mean +/− SD [6]: 15.6 +/− 10.6 fold increase; TNF-alpha fold increase: mean +/− SD [6]: 14.4 +/− 7.1 fold increase; IL-10 fold increase: mean +/− SD [7]: 1.2 +/− 0.2 fold increase; IL-12 fold increase: mean +/− SD [7]: 11.9 +/− 5.4 fold increase; TNF-alpha fold increase: mean +/− SD [7]: 16.5 +/− 4.5 fold increase
3 | GGCCGG [SEQ ID NO:43] | 29 | 26.5 | 18.7 | 21.3 | 10.7 | 22.8 | End SM | 3.1 | – | ↑ IL-6 (fold increase treated vs control cells) [4]: 17.1x; IL-1 beta fold increase: mean +/− SD [5]: 1.5 +/− 0.9 fold increase; IL-6 fold increase: mean +/− SD [5]: 14.9 +/− 10.2 fold increase; IL-10 fold increase: mean +/− SD [5]: 1.2 +/− 0.3 fold increase; IL-12 fold increase: mean +/− SD [5]: 2.5 +/− 2.0 fold increase; IL-10 fold increase: mean +/− SD [6]: 13.6 +/− 9.0 fold increase; IL-12 fold increase: mean +/− SD [6]: 15.1 +/− 10.2 fold increase; TNF-alpha fold increase: mean +/− SD [6]: 14.0 +/− 6.6 fold increase; IL-10 fold increase: mean +/− SD [7]: 1.0 +/− 0.2 fold increase; IL-12 fold increase: mean +/− SD [7]: 11.7 +/− 4.8 fold increase; TNF-alpha fold increase: mean +/− SD [7]: 16.9 +/− 3.5 fold increase
4 | GGGGGGGTGGGGGGGTGGGGGGGTGGG (unmodified DNA) [SEQ ID NO:4] | 11 | 36.5 | 22.3 | 16.3 | 11.1 | 13.8 | None | – | – | % NUMA RELEASED [1]: 90%
5 | GGGGGTGGGGGTGGGGGTGGGGGTGGG (unmodified DNA) [SEQ ID NO:3] | 24 | 40.5 | 23.6 | 13.3 | 9.7 | 12.9 | None | – | – | % NUMA RELEASED [1]: 139%
6 | GoGoGoTsGoGo | 12 | – | – | – | – | – | – | 0.2 | 0 | –
7 | GoGoGsToGoGo | 17 | – | – | – | – | – | – | 0.1 | 12 | –
8 | GoGoGsTsGoGo | 13 | – | – | – | – | – | – | 0.5 | 43 | –
9 | GoGsGoToGsGo | 11 | – | – | – | – | – | – | −0.1 | 13 | –
10 | GsGoGoToGoGs | 16 | – | – | – | – | – | – | −0.1 | 12 | –
11 | GsGsGoToGsGs | −13 | – | – | – | – | – | – | 0 | −3 | –

Reference: patent US20070213291A1, “Therapeutically useful synthetic oligonucleotides” (priority 1999, published 2007)
